{"source": "ChEMBL document CHEMBL6177998", "about": "“Rational Design of Dual Degraders by Incorporating Molecular Glue Structural Features into PROTAC Degraders” (J Med Chem, 2025)", "key": {"[1]": {"system": "Protein cereblon/Androgen receptor (Homo sapiens), P10275+Q96SW2 [UNDEFINED MUTATION]", "sequence (P10275 whole entry, looked up, change not shown, canonical isoform)": "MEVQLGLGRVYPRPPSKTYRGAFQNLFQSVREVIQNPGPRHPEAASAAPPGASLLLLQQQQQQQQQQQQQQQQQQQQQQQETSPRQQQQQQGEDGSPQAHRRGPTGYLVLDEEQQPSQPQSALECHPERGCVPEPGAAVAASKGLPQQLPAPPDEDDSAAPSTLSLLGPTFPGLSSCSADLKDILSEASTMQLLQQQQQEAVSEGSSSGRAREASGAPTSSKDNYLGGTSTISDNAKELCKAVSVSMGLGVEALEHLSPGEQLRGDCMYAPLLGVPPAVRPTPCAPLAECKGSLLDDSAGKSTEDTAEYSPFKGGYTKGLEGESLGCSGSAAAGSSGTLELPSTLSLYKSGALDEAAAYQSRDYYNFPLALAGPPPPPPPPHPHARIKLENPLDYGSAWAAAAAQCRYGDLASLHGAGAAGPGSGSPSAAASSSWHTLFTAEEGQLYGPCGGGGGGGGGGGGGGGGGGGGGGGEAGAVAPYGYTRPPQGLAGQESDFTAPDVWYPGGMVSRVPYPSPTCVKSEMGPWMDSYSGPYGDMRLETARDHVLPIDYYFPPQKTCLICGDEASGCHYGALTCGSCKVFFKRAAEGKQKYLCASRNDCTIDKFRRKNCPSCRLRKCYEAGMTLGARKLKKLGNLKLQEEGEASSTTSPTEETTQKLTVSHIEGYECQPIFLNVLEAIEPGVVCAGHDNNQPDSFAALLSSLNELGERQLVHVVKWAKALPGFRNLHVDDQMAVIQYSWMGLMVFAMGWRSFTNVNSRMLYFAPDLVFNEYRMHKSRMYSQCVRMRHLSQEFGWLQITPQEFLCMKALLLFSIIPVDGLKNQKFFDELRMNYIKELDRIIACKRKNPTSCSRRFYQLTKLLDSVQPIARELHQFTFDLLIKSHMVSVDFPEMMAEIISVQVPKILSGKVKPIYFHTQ", "sequence (Q96SW2 whole entry, looked up, change not shown, canonical isoform)": "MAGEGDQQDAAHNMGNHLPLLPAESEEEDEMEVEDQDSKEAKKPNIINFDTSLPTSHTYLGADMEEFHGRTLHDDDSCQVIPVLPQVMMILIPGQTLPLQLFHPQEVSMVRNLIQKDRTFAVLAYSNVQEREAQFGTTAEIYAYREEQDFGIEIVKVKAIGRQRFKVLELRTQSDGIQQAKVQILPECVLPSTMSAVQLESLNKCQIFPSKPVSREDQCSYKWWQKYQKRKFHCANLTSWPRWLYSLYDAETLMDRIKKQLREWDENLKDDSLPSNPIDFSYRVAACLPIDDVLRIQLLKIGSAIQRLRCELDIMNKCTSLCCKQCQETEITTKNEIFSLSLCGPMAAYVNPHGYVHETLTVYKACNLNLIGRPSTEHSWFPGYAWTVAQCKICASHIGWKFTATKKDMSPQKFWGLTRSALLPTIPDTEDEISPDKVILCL", "assay": "PROTAC activity at CRBN/Androgen receptor splice variant 7 in human 22Rv1 cells assessed as induction of AR-V7 degradation at 50 nM preincubated with MG132 followed by compound addition and measured after 12 hrs by Western blot analysis", "type": "cell-based"}, "[2]": {"biological_target": "T1, Protein cereblon/Androgen receptor (Homo sapiens, UniProt P10275+Q96SW2)", "assay": "PROTAC activity at CRBN/AR in human 22Rv1 cells assessed as decrease in TMPRSS2 protein level incubated for 24 hrs by Western blot analysis", "type": "cell-based", "details": "dose 1-10 nM"}, "[3]": {"system": "CWR22R", "assay": "Downregulation of RCC2 gene expression in human 22Rv1 cells at 3 nM incubated for 24 hrs by Volcano plot analysis", "type": "functional, cell-based"}, "[4]": {"biological_target": "T2, Protein cereblon/Eukaryotic peptide chain release factor GTP-binding subunit ERF3A (Homo sapiens, UniProt Q96SW2+P15170)", "assay": "Molecular glue activity at CRBN/GSPT1 in human 22Rv1 cells assessed as induction of GSPT1 degradation at 20 nM incubated for 12 hrs by Western blot analysis (reference value: 0 %)", "type": "cell-based"}, "[5]": {"biological_target": "T2, Protein cereblon/Eukaryotic peptide chain release factor GTP-binding subunit ERF3A", "assay": "Molecular glue activity at CRBN/GSPT1 in human 22Rv1 cells assessed as induction of GSPT1 degradation at 20 nM incubated for 6 hrs by Western blot analysis (reference value: 0 %)", "type": "cell-based"}, "[6]": {"system": "CWR22R", "assay": "Induction of apoptosis in human 22Rv1 cells assessed as increase in cleaved caspase-3 expression incubated for 24 hrs by Western blot analysis", "type": "functional, cell-based", "details": "dose 1-30 nM"}, "[7]": {"biological_target": "T1, Protein cereblon/Androgen receptor", "assay": "PROTAC activity at CRBN/AR in human LNCaP cells assessed as decrease in PSA protein level incubated for 24 hrs by Western blot analysis", "type": "cell-based", "details": "dose 1-100 nM"}, "[8]": {"system": "Protein cereblon/Androgen receptor (Homo sapiens), P10275+Q96SW2 [UNDEFINED MUTATION]", "assay": "PROTAC activity at CRBN/Androgen receptor splice variant 7 in human 22Rv1 cells assessed as induction of AR-V7 degradation at 20 nM incubated for 12 hrs by Western blot analysis (reference value: 0%)", "type": "cell-based"}, "[9]": {"assay": "Antiproliferative activity against human Enzalutamide-resistant LNCaP cells assessed as cell growth inhibition incubated for 72 hrs by Celltiter-lumi luminescent cell viability assay", "type": "functional, cell-based"}, "[10]": {"system": "Protein cereblon/Androgen receptor (Homo sapiens), P10275+Q96SW2 [UNDEFINED MUTATION]", "assay": "PROTAC activity at CRBN/Androgen receptor splice variant 7 in human 22Rv1 cells assessed as induction of AR-V7 degradation at 20 nM incubated for 18 hrs by Western blot analysis (reference value: 0%)", "type": "cell-based"}, "[11]": {"biological_target": "T2, Protein cereblon/Eukaryotic peptide chain release factor GTP-binding subunit ERF3A", "assay": "Molecular glue activity at CRBN/GSPT1 in human 22Rv1 cells assessed as induction of GSPT1 degradation by measuring maximal efficacy incubated for 24 hrs by Western blot analysis relative to control", "type": "cell-based"}, "[12]": {"system": "CWR22R", "assay": "Downregulation of GTPBP6 gene expression in human 22Rv1 cells at 3 nM incubated for 24 hrs by Volcano plot analysis", "type": "functional, cell-based"}, "[13]": {"biological_target": "T2, Protein cereblon/Eukaryotic peptide chain release factor GTP-binding subunit ERF3A", "assay": "Molecular glue activity at CRBN/GSPT1 in human VCaP cells assessed as induction of GSPT1 degradation at 50 nM preincubated with MLN4924 followed by compound addition and measured after 12 hrs by Western blot analysis", "type": "cell-based"}, "[14]": {"biological_target": "T1, Protein cereblon/Androgen receptor", "assay": "PROTAC activity at CRBN/AR in human 22Rv1 cells assessed as induction of AR degradation at 20 nM incubated for 6 hrs by Western blot analysis (reference value: 0 %)", "type": "cell-based"}, "[15]": {"biological_target": "T2, Protein cereblon/Eukaryotic peptide chain release factor GTP-binding subunit ERF3A", "assay": "Molecular glue activity at CRBN/GSPT1 in human 22Rv1 cells assessed as induction of GSPT1 degradation incubated for 24 hrs by Western blot analysis", "type": "cell-based"}, "[16]": {"biological_target": "Protein cereblon/Sal-like protein 4 (Homo sapiens) (UniProt Q96SW2+Q9UJQ4)", "sequence (Q96SW2 whole entry, looked up)": "as the sequence (Q96SW2 whole entry, looked up, change not shown, canonical isoform) above", "sequence (Q9UJQ4 whole entry, looked up)": "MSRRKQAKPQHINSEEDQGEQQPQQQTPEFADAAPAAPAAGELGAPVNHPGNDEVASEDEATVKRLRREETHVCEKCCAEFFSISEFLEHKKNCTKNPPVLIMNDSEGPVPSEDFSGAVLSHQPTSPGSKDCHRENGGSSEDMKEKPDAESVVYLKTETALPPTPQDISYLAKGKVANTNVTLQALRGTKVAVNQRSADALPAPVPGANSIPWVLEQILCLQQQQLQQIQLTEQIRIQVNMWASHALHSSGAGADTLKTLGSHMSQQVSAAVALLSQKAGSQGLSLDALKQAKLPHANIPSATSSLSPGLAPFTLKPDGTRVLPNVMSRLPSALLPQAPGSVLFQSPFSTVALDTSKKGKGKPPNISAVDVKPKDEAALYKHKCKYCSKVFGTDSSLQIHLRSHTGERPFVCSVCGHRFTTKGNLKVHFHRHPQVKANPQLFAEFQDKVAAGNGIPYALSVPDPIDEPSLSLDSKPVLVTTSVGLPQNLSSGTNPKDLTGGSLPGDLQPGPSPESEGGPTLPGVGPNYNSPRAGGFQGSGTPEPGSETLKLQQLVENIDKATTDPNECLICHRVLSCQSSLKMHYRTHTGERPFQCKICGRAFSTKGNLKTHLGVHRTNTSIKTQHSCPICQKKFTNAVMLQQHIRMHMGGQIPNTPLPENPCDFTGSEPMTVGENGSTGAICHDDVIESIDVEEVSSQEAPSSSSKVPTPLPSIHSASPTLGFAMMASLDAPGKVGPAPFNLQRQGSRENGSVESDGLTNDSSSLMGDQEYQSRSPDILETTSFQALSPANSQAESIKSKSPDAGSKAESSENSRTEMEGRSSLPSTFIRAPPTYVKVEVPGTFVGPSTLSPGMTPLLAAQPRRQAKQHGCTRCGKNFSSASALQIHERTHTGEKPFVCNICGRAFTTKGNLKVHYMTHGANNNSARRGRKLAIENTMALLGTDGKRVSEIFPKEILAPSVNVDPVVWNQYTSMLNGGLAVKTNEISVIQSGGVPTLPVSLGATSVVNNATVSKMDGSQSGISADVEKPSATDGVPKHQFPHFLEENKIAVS", "assay": "Molecular glue activity at CRBN/SALL4 in human 22Rv1 cells assessed as induction of SALL4 degradation at 1 uM incubated for 6 hrs by Western blot analysis", "type": "cell-based"}, "[17]": {"system": "Protein cereblon/Androgen receptor (Homo sapiens), P10275+Q96SW2 [UNDEFINED MUTATION]", "assay": "PROTAC activity at CRBN/Androgen receptor splice variant 7 in human 22Rv1 cells assessed as induction of AR-V7 degradation by measuring maximal efficacy incubated for 24 hrs by Western blot analysis relative to control", "type": "cell-based"}, "[18]": {"biological_target": "T1, Protein cereblon/Androgen receptor", "assay": "PROTAC activity at CRBN/AR in human 22Rv1 cells assessed as induction of AR degradation at 20 nM incubated for 2 hrs by Western blot analysis (reference value: 0 %)", "type": "cell-based"}, "[19]": {"biological_target": "Protein cereblon/Zinc finger protein Helios (Homo sapiens) (UniProt Q96SW2+Q9UKS7)", "sequence (Q96SW2 whole entry, looked up)": "as the sequence (Q96SW2 whole entry, looked up, change not shown, canonical isoform) above", "sequence (Q9UKS7 whole entry, looked up)": "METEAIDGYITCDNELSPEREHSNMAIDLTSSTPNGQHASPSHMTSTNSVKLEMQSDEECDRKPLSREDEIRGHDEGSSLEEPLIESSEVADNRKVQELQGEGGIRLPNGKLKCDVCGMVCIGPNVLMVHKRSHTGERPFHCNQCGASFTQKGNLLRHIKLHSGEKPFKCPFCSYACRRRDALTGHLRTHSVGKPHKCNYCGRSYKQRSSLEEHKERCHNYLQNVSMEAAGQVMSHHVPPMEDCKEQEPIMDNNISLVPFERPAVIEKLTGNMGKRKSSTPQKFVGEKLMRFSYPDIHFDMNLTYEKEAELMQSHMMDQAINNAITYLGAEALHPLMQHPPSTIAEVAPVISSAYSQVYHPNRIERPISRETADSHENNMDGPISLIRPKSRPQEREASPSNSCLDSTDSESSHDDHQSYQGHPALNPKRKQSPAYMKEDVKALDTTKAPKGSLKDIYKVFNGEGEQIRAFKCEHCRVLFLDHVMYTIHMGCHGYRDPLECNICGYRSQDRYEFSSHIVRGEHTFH", "assay": "Molecular glue activity at CRBN/IKZF2 in human 22Rv1 cells assessed as induction of IKZF2 degradation at 1 uM incubated for 6 hrs by Western blot analysis", "type": "cell-based"}, "[20]": {"biological_target": "T2, Protein cereblon/Eukaryotic peptide chain release factor GTP-binding subunit ERF3A", "assay": "Molecular glue activity at CRBN/GSPT1 in human 22Rv1 cells assessed as induction of GSPT1 degradation at 50 nM preincubated with MG132 followed by compound addition and measured after 12 hrs by Western blot analysis", "type": "cell-based"}, "[21]": {"assay": "Half-life in male ICR mouse at 2 mg/kg, iv by LC-MS/MS analysis", "type": "ADME, organism-based", "details": "in vivo"}, "[22]": {"biological_target": "T1, Protein cereblon/Androgen receptor", "assay": "PROTAC activity at CRBN/AR in human 22Rv1 cells assessed as induction of AR degradation at 0.1 uM incubated for 24 hrs by Western blot analysis relative to control", "type": "cell-based"}, "[23]": {"assay": "AUC in male ICR mouse at 2 mg/kg, iv by LC-MS/MS analysis", "type": "ADME, organism-based", "details": "in vivo"}, "[24]": {"system": "Protein cereblon/Androgen receptor (Homo sapiens), P10275+Q96SW2 [UNDEFINED MUTATION]", "assay": "PROTAC activity at CRBN/Androgen receptor splice variant 7 in human 22Rv1 cells assessed as induction of AR-V7 degradation at 20 nM incubated for 36 hrs by Western blot analysis (reference value: 0%)", "type": "cell-based"}, "[25]": {"biological_target": "T2, Protein cereblon/Eukaryotic peptide chain release factor GTP-binding subunit ERF3A", "assay": "Molecular glue activity at CRBN/GSPT1 in human 22Rv1 cells assessed as induction of GSPT1 degradation at 0.01 uM incubated for 24 hrs by Western blot analysis relative to control", "type": "cell-based"}, "[26]": {"biological_target": "T1, Protein cereblon/Androgen receptor", "assay": "PROTAC activity at CRBN/AR in human VCaP cells assessed as induction of AR degradation at 0.1 uM incubated for 24 hrs by Western blot analysis relative to control", "type": "cell-based"}, "[27]": {"system": "Protein cereblon/Androgen receptor (Homo sapiens), P10275+Q96SW2 [UNDEFINED MUTATION]", "assay": "(§1) PROTAC activity at CRBN/Androgen receptor splice variant 7 in human 22Rv1 cells assessed as induction of AR-V7 degradation incubated for 24 hrs by Western blot analysis", "type": "cell-based"}, "[28]": {"biological_target": "T1, Protein cereblon/Androgen receptor", "assay": "as §1", "type": "cell-based"}, "[29]": {"system": "LNCaP", "assay": "Induction of apoptosis in human LNCaP cells assessed as increase in cleaved PARP expression incubated for 24 hrs by Western blot analysis", "type": "functional, cell-based", "details": "dose 1-100 nM"}, "[30]": {"biological_target": "Cereblon/Ikaros (Homo sapiens) (UniProt Q96SW2+Q13422)", "assay": "Molecular glue activity at CRBN/IKZF1 in human 22Rv1 cells assessed as induction of IKZF1 degradation at 1 uM incubated for 6 hrs by Western blot analysis", "type": "cell-based"}, "[31]": {"biological_target": "T2, Protein cereblon/Eukaryotic peptide chain release factor GTP-binding subunit ERF3A", "assay": "Molecular glue activity at CRBN/GSPT1 in human VCaP cells assessed as induction of GSPT1 degradation incubated for 24 hrs by Western blot analysis", "type": "cell-based"}, "[32]": {"biological_target": "T2, Protein cereblon/Eukaryotic peptide chain release factor GTP-binding subunit ERF3A", "assay": "Molecular glue activity at CRBN/GSPT1 in human VCaP cells assessed as induction of GSPT1 degradation at 20 nM measured after 6 hrs by Western blot analysis", "type": "cell-based"}, "[33]": {"assay": "Cytotoxicity against human THLE-2 cells assessed as cell growth inhibition incubated for 72 hrs by Celltiter-lumi luminescent cell viability assay", "type": "toxicity, cell-based"}, "[34]": {"assay": "Cmax in male ICR mouse at 2 mg/kg, iv by LC-MS/MS analysis", "type": "ADME, organism-based", "details": "in vivo"}}, "note": "Active and inactive are the calls of the source. The calls are words filed in the database; no cut-off is given here.", "data": [{"smiles": "COc1ccc(C(C)(C)c2cc(Cl)c(OCC3CCN(C(=O)CCCCCNc4ccc5c(c4)C(=O)N(C4CCC(=O)NC4=O)C5=O)CC3)c(C#N)c2)cc1", "note": "(stereo unspecified)", "values": [{"measurement": "Activity", "setting": "[1]", "result": "inactive"}, {"measurement": "Activity", "setting": "[2]", "result": "Dose-dependent-effect"}, {"measurement": "Activity", "setting": "[3]", "result": "Active"}, {"measurement": "Activity", "setting": "[4]", "result": 98.7, "unit": "%"}, {"measurement": "Activity", "setting": "[5]", "result": 98.6, "unit": "%"}, {"measurement": "Activity", "setting": "[6]", "result": "Dose-dependent-effect"}, {"measurement": "Activity", "setting": "[7]", "result": "Dose-dependent-effect"}, {"measurement": "Activity", "setting": "[8]", "result": 56.6, "unit": "%"}, {"measurement": "IC50", "setting": "[9]", "result": 25.1, "unit": "nM"}, {"measurement": "Activity", "setting": "[10]", "result": 91.4, "unit": "%"}, {"measurement": "Emax", "setting": "[11]", "result": 94.2, "unit": "%"}, {"measurement": "Activity", "setting": "[12]", "result": "Active"}, {"measurement": "Activity", "setting": "[13]", "result": "inactive"}, {"measurement": "Activity", "setting": "[14]", "result": 49.7, "unit": "%"}, {"measurement": "Activity", "setting": "[15]", "result": "Dose-dependent-effect"}, {"measurement": "DC50", "setting": "[15]", "result": 1.2, "unit": "nM"}, {"measurement": "Activity", "setting": "[16]", "result": "inactive"}, {"measurement": "Emax", "setting": "[17]", "result": 92.6, "unit": "%"}, {"measurement": "Activity", "setting": "[18]", "result": 56.3, "unit": "%"}, {"measurement": "Activity", "setting": "[19]", "result": "inactive"}, {"measurement": "Activity", "setting": "[20]", "result": "inactive"}, {"measurement": "half-life", "setting": "[21]", "result": 54, "unit": "min"}, {"measurement": "Activity", "setting": "[22]", "result": 89.9, "unit": "%"}, {"measurement": "AUC", "setting": "[23]", "result": 1850, "unit": "ng·h/mL"}, {"measurement": "Activity", "setting": "[24]", "result": 98.3, "unit": "%"}, {"measurement": "Activity", "setting": "[25]", "result": 93.9, "unit": "%"}, {"measurement": "Activity", "setting": "[26]", "result": 92.2, "unit": "%"}, {"measurement": "Activity", "setting": "[27]", "result": "Dose-dependent-effect"}, {"measurement": "DC50", "setting": "[28]", "result": 3, "unit": "nM"}, {"measurement": "Activity", "setting": "[29]", "result": "Dose-dependent-effect"}, {"measurement": "Activity", "setting": "[30]", "result": "inactive"}, {"measurement": "Activity", "setting": "[31]", "result": "Dose-dependent-effect"}, {"measurement": "DC50", "setting": "[31]", "result": 0.6, "unit": "nM"}, {"measurement": "Activity", "setting": "[32]", "result": "Active"}, {"measurement": "IC50 at 72 h", "setting": "[33]", "result": "> 10000", "unit": "nM"}, {"measurement": "Cmax", "setting": "[34]", "result": 1120, "unit": "ng/mL"}]}]}
